From patent US20260216183A1 (SHENZHEN NEWDEL BIOTECH CO., LTD., priority 2023, published 2026)

Experiments:
CSF1R = biological target: T1, CSF1R (Homo sapiens, UniProt P07333); test: CSF1R enzyme activity assay (HTRF); assay type: biochemical; settings: ATP 25 μM
T1 construct: purchased Carna 08-114
T1 sequence (P07333 538-972 limits assumed): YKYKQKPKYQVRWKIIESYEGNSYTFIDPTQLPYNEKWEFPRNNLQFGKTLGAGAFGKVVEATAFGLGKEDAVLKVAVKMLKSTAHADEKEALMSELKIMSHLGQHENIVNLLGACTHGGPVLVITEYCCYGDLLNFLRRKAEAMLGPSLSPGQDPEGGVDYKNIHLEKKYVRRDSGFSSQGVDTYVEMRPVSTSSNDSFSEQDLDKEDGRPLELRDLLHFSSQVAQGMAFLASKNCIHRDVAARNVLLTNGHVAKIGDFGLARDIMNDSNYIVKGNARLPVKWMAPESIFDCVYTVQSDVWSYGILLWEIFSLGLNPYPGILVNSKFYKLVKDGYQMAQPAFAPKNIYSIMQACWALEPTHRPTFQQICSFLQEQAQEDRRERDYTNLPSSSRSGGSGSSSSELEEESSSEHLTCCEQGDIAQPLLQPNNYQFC
Text: (§2) A kinase phosphorylates a substrate, and an antibody labeled with Eu-CryPtate binds to a phosphorylation site in the substrate; streptavidin-XL665 binds to the substrate biotin; when Eu and XL665 are close, Eu as a donor emits emission light (620 nm) after being excited by a light source (320 nm) and transfers energy resonance to a close XL665 receptor, and the receptor emits emission light (665 nm) after being excited; the specific signal is proportional to the phosphorylated substrate; when an inhibitor is added, the phosphorylation level is inhibited, the emission light at 665 nm is undetectable, and only the emission light at 620 nm is detected, so as to evaluate the level of inhibition of kinase activity by the compound.
Replicate wells were set for the assay. […] 2.5 μL of CSF1R (1.3 nM, 08-114, Carna) solution was transferred to a 384 reaction plate. The plate was centrifuged at 1000 rpm for 60 s using a centrifuge and incubated at 25° C. for 10 min. A mixed solution of 2× biotin-labeled tyrosine kinase substrate (1 μM) and ATP (25 μM) was prepared using the kinase reaction buffer. […] The fluorescence signals at 620 nm (Cryptate) and 665 nm (XL665) were read using a BMG microplate reader. The ratio of the fluorescence signals, i.e., (665 nm/620 nm)×10000, in each well was calculated, and the ratio represented the degree of the kinase activity.

TRKA = biological target: T2, TRKA (Homo sapiens, UniProt P04629); test: TRKA enzyme activity assay (HTRF); assay type: biochemical; settings: ATP 25 μM
T2 construct: purchased Carna 08-186
T2 sequence (P04629 33-796): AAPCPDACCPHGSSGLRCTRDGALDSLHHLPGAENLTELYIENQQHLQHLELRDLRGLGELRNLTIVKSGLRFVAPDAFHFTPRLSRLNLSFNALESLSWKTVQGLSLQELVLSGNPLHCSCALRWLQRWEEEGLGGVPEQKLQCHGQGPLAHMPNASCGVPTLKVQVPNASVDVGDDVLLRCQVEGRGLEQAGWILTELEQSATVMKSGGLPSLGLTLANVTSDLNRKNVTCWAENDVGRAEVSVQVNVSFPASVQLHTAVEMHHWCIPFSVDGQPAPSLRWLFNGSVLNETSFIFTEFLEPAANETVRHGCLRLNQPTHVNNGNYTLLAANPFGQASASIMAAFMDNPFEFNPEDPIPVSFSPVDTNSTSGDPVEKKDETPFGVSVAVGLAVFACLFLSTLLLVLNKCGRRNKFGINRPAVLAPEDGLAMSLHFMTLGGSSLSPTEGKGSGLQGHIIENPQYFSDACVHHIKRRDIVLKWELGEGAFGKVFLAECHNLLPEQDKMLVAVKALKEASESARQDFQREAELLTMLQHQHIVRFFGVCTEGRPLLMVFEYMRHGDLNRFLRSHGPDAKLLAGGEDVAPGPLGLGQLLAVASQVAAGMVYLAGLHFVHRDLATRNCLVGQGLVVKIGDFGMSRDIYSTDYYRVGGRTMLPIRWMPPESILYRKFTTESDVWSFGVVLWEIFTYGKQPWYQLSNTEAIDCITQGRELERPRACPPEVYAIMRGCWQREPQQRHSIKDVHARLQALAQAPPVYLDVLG
Text: as §2
Replicate wells were set for the assay. 25 nL of the compound was transferred to a 384 reaction plate (Catalog No. 784075, Greiner) using Echo 665. […] 2.5 μL of TRKA (1.5 nM, 08-186, Carna) solution was transferred to a 384 reaction plate. The plate was centrifuged at 1000 rpm for 60 s using a centrifuge and incubated at 25° C. for 10 min. […] The fluorescence signals at 620 nm (Cryptate) and 665 nm (XL665) were read using a BMG microplate reader. The ratio of the fluorescence signals, i.e., (665 nm/620 nm)×10000, in each well was calculated, and the ratio represented the degree of the kinase activity.

TRKC = biological target: T3, TRKC (Homo sapiens, UniProt Q16288); test: TRKC enzyme activity assay (HTRF); assay type: biochemical; settings: ATP 25 μM
T3 construct: purchased Carna 08-197
T3 sequence (Q16288 32-839): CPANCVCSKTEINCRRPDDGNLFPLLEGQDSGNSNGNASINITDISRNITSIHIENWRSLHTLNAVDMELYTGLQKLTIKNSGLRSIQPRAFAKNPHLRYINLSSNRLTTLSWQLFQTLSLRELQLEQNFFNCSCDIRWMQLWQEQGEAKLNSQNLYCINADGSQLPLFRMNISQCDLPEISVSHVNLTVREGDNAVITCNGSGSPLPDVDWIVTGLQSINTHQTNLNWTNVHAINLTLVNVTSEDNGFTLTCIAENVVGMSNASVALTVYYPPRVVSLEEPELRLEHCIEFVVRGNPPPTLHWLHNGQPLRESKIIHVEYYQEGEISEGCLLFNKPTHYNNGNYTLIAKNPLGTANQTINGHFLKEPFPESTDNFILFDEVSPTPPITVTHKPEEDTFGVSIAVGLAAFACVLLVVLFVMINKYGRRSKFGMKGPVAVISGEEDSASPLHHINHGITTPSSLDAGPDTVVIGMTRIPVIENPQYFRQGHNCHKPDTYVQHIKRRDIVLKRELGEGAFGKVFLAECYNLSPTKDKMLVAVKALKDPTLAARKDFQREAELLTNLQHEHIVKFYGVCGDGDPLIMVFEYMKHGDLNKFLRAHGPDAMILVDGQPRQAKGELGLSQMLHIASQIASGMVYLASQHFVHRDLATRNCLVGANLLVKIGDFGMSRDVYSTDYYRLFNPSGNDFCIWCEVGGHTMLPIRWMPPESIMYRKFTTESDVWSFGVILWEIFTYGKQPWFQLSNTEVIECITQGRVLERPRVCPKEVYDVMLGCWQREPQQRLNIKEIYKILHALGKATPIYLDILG
Text: as §2
Replicate wells were set for the assay. […] 2.5 μL of TRKC (1.5 nM, 08-197, Carna) solution was transferred to a 384 reaction plate. The plate was centrifuged at 1000 rpm for 60 s using a centrifuge and incubated at 25° C. for 10 min. A mixed solution of 2× biotin-labeled tyrosine kinase substrate (1 μM) and ATP (25 μM) was prepared using the kinase reaction buffer. […] The fluorescence signals at 620 nm (Cryptate) and 665 nm (XL665) were read using a BMG microplate reader. The ratio of the fluorescence signals, i.e., (665 nm/620 nm)×10000, in each well was calculated, and the ratio represented the degree of the kinase activity.

[1] = Mouse body weight change in the oral administration experiment; assay type: in vivo, Balb/c mice; settings: vs group 2 (vehicle)
Procedure: (§1) (1) Screening and grouping: 60 female 6- to 8-week-old Balb/c mice in total were used as experimental animals in this project, which were obtained from Shanghai Model Organisms Center, Inc. The first grouping was done before the start of the experiment. […] (2) Animal modeling: The day when the first grouping was done was designated as day (−7). The backs of the mice were depilated with depilatory cream (area of about 2 cm×3 cm). […] The 1% OXA solution was prepared by weighing 0.1 g of OXA powder, adding 10 mL of an acetone solution, mixing well, and dissolving. […] (3) The administration mode of the test substance: […] The mice were sacrificed on day 21. The skin of the right ear of the mice was left for pathological examination. The thickness of the epidermal layer and inflammatory cell infiltration were measured by H&E staining, and the thickness of the dermis layer was measured by Masson staining.

[2] = tested on: OXA-induced atopic dermatitis mouse model; test: OXA-induced atopic dermatitis mouse model, oral administration; assay type: in vivo, Balb/c mice; settings: for Inflammatory cell content in right ear tissue, Significance level: compared to G2 (vehicle); for Clinical scores of dorsal skin, Significance level / Rate of change in the thickness of the pinna of the right ear, Significance level / Thickness of dermis layer of right ear, Significance level / Thickness of epidermal layer of right ear, Significance level / Pinna thickness change rate at time point, Significance level: vs group 2 (vehicle); for Number of inflammatory cells per mm: right ear tissue, Mean ± SEM
Procedure: as §1

DDR1 = biological target: T4, DDR1 (Homo sapiens, UniProt Q08345); test: DDR1 enzyme activity assay (HTRF); assay type: biochemical; settings: ATP 25 μM
T4 construct: purchased Carna 08-113
T4 sequence (Q08345 19-913): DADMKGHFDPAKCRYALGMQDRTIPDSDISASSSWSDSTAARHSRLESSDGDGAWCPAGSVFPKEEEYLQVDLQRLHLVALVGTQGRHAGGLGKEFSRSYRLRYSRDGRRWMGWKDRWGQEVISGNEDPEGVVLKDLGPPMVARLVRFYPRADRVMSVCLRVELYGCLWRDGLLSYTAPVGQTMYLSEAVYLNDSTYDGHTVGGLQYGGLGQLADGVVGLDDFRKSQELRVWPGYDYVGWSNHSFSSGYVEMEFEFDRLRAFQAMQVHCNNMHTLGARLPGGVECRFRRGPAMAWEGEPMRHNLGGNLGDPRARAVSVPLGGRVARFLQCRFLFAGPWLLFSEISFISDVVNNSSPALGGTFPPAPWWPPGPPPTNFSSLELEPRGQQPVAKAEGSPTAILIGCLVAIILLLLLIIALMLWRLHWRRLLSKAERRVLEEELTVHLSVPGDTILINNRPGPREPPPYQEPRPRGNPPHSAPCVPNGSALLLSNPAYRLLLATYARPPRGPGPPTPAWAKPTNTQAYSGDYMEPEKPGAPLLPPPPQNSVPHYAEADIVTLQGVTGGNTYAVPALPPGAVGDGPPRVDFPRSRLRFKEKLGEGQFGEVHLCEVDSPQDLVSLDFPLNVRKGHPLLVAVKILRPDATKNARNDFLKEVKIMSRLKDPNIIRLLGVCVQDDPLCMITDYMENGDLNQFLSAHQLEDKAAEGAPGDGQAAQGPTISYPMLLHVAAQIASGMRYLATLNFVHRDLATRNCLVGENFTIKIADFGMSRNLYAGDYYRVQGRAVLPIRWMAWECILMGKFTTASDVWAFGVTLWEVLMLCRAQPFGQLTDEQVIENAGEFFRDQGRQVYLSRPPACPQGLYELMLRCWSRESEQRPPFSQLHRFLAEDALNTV
Text: as §2
Replicate wells were set for the assay. […] 2.5 μL of DDR1 (2.7 nM, 08-113, Carna) solution was transferred to a 384 reaction plate. The plate was centrifuged at 1000 rpm for 60 s using a centrifuge and incubated at 25° C. for 10 min. A mixed solution of 2× biotin-labeled tyrosine kinase substrate (1 μM) and ATP (25 μM) was prepared using the kinase reaction buffer. […] The fluorescence signals at 620 nm (Cryptate) and 665 nm (XL665) were read using a BMG microplate reader. The ratio of the fluorescence signals, i.e., (665 nm/620 nm)×10000, in each well was calculated, and the ratio represented the degree of the kinase activity.

DDR2 = biological target: T5, DDR2 (Homo sapiens, UniProt Q16832); test: DDR2 enzyme activity assay (HTRF); assay type: biochemical; settings: ATP 25 μM
T5 sequence (Q16832 22-855): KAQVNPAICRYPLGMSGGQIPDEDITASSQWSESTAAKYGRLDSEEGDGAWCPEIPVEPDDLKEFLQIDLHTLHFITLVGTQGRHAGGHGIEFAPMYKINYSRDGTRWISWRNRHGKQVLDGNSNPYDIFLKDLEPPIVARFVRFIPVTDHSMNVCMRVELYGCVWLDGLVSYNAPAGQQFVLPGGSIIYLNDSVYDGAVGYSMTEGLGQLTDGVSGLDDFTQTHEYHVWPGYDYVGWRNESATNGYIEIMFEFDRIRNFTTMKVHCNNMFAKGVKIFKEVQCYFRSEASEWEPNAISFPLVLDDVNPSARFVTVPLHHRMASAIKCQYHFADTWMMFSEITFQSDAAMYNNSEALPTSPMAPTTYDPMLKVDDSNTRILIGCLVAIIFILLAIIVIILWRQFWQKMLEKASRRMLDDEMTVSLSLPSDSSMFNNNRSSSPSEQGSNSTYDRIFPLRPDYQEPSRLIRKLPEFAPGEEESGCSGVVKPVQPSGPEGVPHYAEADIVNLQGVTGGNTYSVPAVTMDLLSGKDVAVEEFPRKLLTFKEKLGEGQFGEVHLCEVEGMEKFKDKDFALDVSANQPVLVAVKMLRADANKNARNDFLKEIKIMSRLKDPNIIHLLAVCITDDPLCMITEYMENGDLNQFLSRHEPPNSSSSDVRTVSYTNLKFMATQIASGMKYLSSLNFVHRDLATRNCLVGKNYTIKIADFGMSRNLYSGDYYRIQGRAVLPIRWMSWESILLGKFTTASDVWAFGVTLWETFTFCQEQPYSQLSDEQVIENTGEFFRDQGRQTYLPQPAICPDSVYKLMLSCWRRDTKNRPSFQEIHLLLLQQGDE
Procedure: Replicate wells were set for the assay. […] 2.5 μL of DDR2 (1.3 nM, 08-114, Carna) solution was transferred to a 384 reaction plate. The plate was centrifuged at 1000 rpm for 60 s using a centrifuge and incubated at 25° C. for 10 min. A mixed solution of 2× biotin-labeled tyrosine kinase substrate (1 μM) and ATP (25 μM) was prepared using the kinase reaction buffer. 2.5 μL of the mixed solution of the substrate and ATP was added to the reaction plate to start the reaction, and the plate was centrifuged at 1000 rpm for 60 s using the centrifuge. The plate was sealed with a plate-sealing film and incubated at 25° C. for 40 min. 5 μL of a mixed solution of Eu-CryPtate-labeled anti-tyrosine kinase antibody and streptavidin-XL665 was added to each well of the reaction plate. The plate was centrifuged at 1000 rpm for 1 min and incubated at 25° C. for 60 min. The fluorescence signals at 620 nm (Cryptate) and 665 nm (XL665) were read using a BMG microplate reader. The ratio of the fluorescence signals, i.e., (665 nm/620 nm)×10000, in each well was calculated, and the ratio represented the degree of the kinase activity.

Cc1c(C#Cc2cnc3ccc(N4CCC(O)CC4)nn23)cccc1C(=O)Nc1cc(Cl)cc(C(F)(F)F)c1 [compound 1, N-(3-chloro-5-(trifluoromethyl)phenyl)-3-((6-(4-hydroxypiperidin-1-yl)imidazo[1,2-b]pyridazin-3-yl)ethynyl)-2-methylbenzamide]
**** (****p<0.0001): Thickness of dermis layer of right ear, Significance level ([2]; 3 mpk p.o. once daily 22 days) | Rate of change in the thickness of the pinna of the right ear, Significance level ([2]; 10 mpk p.o. once daily 22 days) | Thickness of dermis layer of right ear, Significance level ([2]; 10 mpk p.o. once daily 22 days) | Rate of change in the thickness of the pinna of the right ear, Significance level ([2]; 30 mpk p.o. once daily 22 days) | Thickness of dermis layer of right ear, Significance level ([2]; 30 mpk p.o. once daily 22 days)
0.35 nM: IC50 (TRKC)
189 ± 27.25 cells per mm: Number of inflammatory cells per mm ([2]; 3 mpk p.o. once daily 22 days)
* (*p<0.05): Rate of change in the thickness of the pinna of the right ear, Significance level ([2]; 3 mpk p.o. once daily 22 days) | Thickness of epidermal layer of right ear, Significance level ([2]; 3 mpk p.o. once daily 22 days) | Clinical scores of dorsal skin, Significance level ([2]; 10 mpk p.o. once daily 22 days) | Thickness of epidermal layer of right ear, Significance level ([2]; 10 mpk p.o. once daily 22 days) | Thickness of epidermal layer of right ear, Significance level ([2]; 30 mpk p.o. once daily 22 days) | Pinna thickness change rate at time point, Significance level ([2]; day 10, 3 mpk p.o. once daily) | Pinna thickness change rate at time point, Significance level ([2]; day 17, 30 mpk p.o. once daily)
ns (p>0.05): Rate of change in body weight, Significance level ([1]; 10 mpk p.o. once daily 22 days) | Rate of change in body weight, Significance level ([1]; 30 mpk p.o. once daily 22 days) | Clinical scores of dorsal skin, Significance level ([2]; 3 mpk p.o. once daily 22 days) | Pinna thickness change rate at time point, Significance level ([2]; day 3, 3 mpk p.o. once daily) | Pinna thickness change rate at time point, Significance level ([2]; day 3, 10 mpk p.o. once daily) | Pinna thickness change rate at time point, Significance level ([2]; day 5, 3 mpk p.o. once daily) | Pinna thickness change rate at time point, Significance level ([2]; day 5, 10 mpk p.o. once daily) | Pinna thickness change rate at time point, Significance level ([2]; day 7, 3 mpk p.o. once daily) | Pinna thickness change rate at time point, Significance level ([2]; day 7, 10 mpk p.o. once daily) | Pinna thickness change rate at time point, Significance level ([2]; day 12, 3 mpk p.o. once daily) | Pinna thickness change rate at time point, Significance level ([2]; day 12, 10 mpk p.o. once daily) | Pinna thickness change rate at time point, Significance level ([2]; day 14, 3 mpk p.o. once daily) | Pinna thickness change rate at time point, Significance level ([2]; day 17, 3 mpk p.o. once daily) | Pinna thickness change rate at time point, Significance level ([2]; day 17, 10 mpk p.o. once daily) | Pinna thickness change rate at time point, Significance level ([2]; day 19, 3 mpk p.o. once daily) | Pinna thickness change rate at time point, Significance level ([2]; day 21, 3 mpk p.o. once daily)
162 ± 18.31 cells per mm: Number of inflammatory cells per mm ([2]; 10 mpk p.o. once daily 22 days)
37.9 nM: IC50 (DDR2)
*** (***p<0.001): Inflammatory cell content in right ear tissue, Significance level ([2]; 3 mpk p.o. once daily 22 days) | Inflammatory cell content in right ear tissue, Significance level ([2]; 10 mpk p.o. once daily 22 days) | Inflammatory cell content in right ear tissue, Significance level ([2]; 30 mpk p.o. once daily 22 days) | Clinical scores of dorsal skin, Significance level ([2]; 30 mpk p.o. once daily 22 days) | Pinna thickness change rate at time point, Significance level ([2]; day 19, 30 mpk p.o. once daily) | Pinna thickness change rate at time point, Significance level ([2]; day 21, 30 mpk p.o. once daily)
4.4 nM: IC50 (TRKA)
0.762 nM: IC50 (DDR1)
14.7 nM: IC50 (CSF1R)
160 ± 34.18 cells per mm: Number of inflammatory cells per mm ([2]; 30 mpk p.o. once daily 22 days)
** (**p<0.01): Rate of change in body weight, Significance level ([1]; 3 mpk p.o. once daily 22 days) | Pinna thickness change rate at time point, Significance level ([2]; day 3, 30 mpk p.o. once daily) | Pinna thickness change rate at time point, Significance level ([2]; day 5, 30 mpk p.o. once daily) | Pinna thickness change rate at time point, Significance level ([2]; day 7, 30 mpk p.o. once daily) | Pinna thickness change rate at time point, Significance level ([2]; day 10, 10 mpk p.o. once daily) | Pinna thickness change rate at time point, Significance level ([2]; day 10, 30 mpk p.o. once daily) | Pinna thickness change rate at time point, Significance level ([2]; day 12, 30 mpk p.o. once daily) | Pinna thickness change rate at time point, Significance level ([2]; day 14, 10 mpk p.o. once daily) | Pinna thickness change rate at time point, Significance level ([2]; day 14, 30 mpk p.o. once daily) | Pinna thickness change rate at time point, Significance level ([2]; day 19, 10 mpk p.o. once daily) | Pinna thickness change rate at time point, Significance level ([2]; day 21, 10 mpk p.o. once daily)
